According to US20050112573A1, “Method of detecting toxic substance” (priority 2001, published 2005):

Test system: yeast genes (level of expressed mRNA)
Test: DNA chip analysis of expressed mRNA of yeast genes after 2 h culture with a toxic chemical substance
Assay type: cell-based, Saccharomyces cerevisiae S288C
Experimental: Yeast (Saccharomyces cerevtisiae S288C (α SUC2mal mel gap2 CUP1)) were cultured at 25° C. on YPD medium (yeast extract 1%, polypepton 2%, glucose 2%). One of toxic chemical substances was added to the cell at logarithmic growth phase, and the cell was further cultured for two hours. Cell was cultured without any chemical substance in the same condition, and was used as control. Concentrations of the chemical substances were defined to inhibit the growth of the yeast but not lead to death.
After the completion of cultivation, the culture was centrifuged to collect the cells. To the cells, sodium acetate buffer (50 mM sodium acetate, 10 mM EDTA, 1% SDS) was added, and the mixture was shaken at 65° C. for five minutes, followed by returning to room temperature, and obtaining the supernatant, which procedure was repeated two times. To the supernatant, ½ amount of a solution of phenol/chloroform was added, and the mixture was centrifuged to give a supernatant, which was added with an equal amount of chloroform, and the mixture was centrifuged to give a supernatant. To the supernatant, an equal amount of isopropanol containing 0.3 M sodium acetate was added, and the mixture was allowed to stand at room temperature for 30 minutes, after which the mixture was centrifuged to give a sediment of the whole RNAs. Seventy % ethanol was added to the sediment, and the mixture was again centrifuged to give a sediment, which was then dried and dissolved in water. mRNA was isolated from the whole RNAs as followings. In view of the fact that a poly A chain is attached to the 3′ terminus of mRNA, a polynucleotide having a poly T structure which was immobilized on the surface of latex beads was used to trap the mRNA, and then the mRNA was washed and eluted with spine column (Oligotex-dT30<Super>mRNA Purification Kit, Takara). Reverse transcription of the mRNA was conducted with a reverse transcriptase (Super Script II Reverse Transcriptase; catalogue No. 18064-014, GibcoBRL) using fluorescence-labeled nucleotides to give cDNAs that were introduced with Cy3-dUTP or Cy5-dUTP during the reverse transcription.
The labeled cDNAs were dissolved in TE buffer (10 mM Tris-HCl/1 mM EDTA, pH8.0), and the solution was dropped on the DNA chip containing the whole genes of yeast (DNA Chip Research Inc. Japan) so that the cDNAs were hybridized on the DNA chip at 65° C. for over 12 hours. The fluoresces intensity of the DNA chip was read with a scanner, and the ratio relative to the fluorescence intensity resulting from the absence of chemical substance was estimated as the following, which is shown in Tables 1 to 9: [formula]
In the Tables, “Intensity” indicated in the rightmost column is a value of the level of expressed mRNA of each gene in control cells as divided by the average level of the expressions of the whole genes.

Structure (SMILES): C=CC=O [(14), acrolein]
- The level of expressed mRNA in the presence of chemical substance/absence: YDR128W (gene YDR128W): 1.0
- The level of expressed mRNA in the presence of chemical substance/absence: YDR133C (gene YDR133C): 0.6
- The level of expressed mRNA in the presence of chemical substance/absence: YDR140W (gene YDR140W): 3.2
- The level of expressed mRNA in the presence of chemical substance/absence: YDR221W (gene YDR221W): 1.0
- The level of expressed mRNA in the presence of chemical substance/absence: YDR250C (gene YDR250C): 0.9
- The level of expressed mRNA in the presence of chemical substance/absence: YDR271C (gene YDR271C): 1.4
- The level of expressed mRNA in the presence of chemical substance/absence: YDR278C (gene YDR278C): 0.9
- The level of expressed mRNA in the presence of chemical substance/absence: YDR281C (gene YDR281C): 1.2
- The level of expressed mRNA in the presence of chemical substance/absence: YDR316W (gene YDR316W): 0.7
- The level of expressed mRNA in the presence of chemical substance/absence: YDR338C (gene YDR338C): 1.0
- The level of expressed mRNA in the presence of chemical substance/absence: YDR366C (gene YDR366C): 1.4
- level of expressed mRNA in the presence of chemical substance/in its absence (gene YDR380W): 0.6
- level of expressed mRNA in the presence of chemical substance/in its absence (gene YDR410C): 1.3
- The level of expressed mRNA in the presence of chemical substance/absence: YDR421W (gene YDR421W): 1.2
- The level of expressed mRNA in the presence of chemical substance/absence: YDR425W (gene YDR425W): 1.3
- The level of expressed mRNA in the presence of chemical substance/absence: YDR485C (gene YDR485C): 1.1
- level of expressed mRNA in the presence of chemical substance/in its absence (gene YDR487C): 2.5
- level of expressed mRNA in the presence of chemical substance/in its absence (gene YDR502C): 0.8
- The level of expressed mRNA in the presence of chemical substance/absence: YDR504C (gene YDR504C): 1.3
- level of expressed mRNA in the presence of chemical substance/in its absence (gene YEL011W): 1.5
- level of expressed mRNA in the presence of chemical substance/in its absence (gene YEL020C): 1.0
- The level of expressed mRNA in the presence of chemical substance/absence: YEL044W (gene YEL044W): 0.6
- level of expressed mRNA in the presence of chemical substance/in its absence (gene YER026C): 1.1
- level of expressed mRNA in the presence of chemical substance/in its absence (gene YER069W): 1.3
- The level of expressed mRNA in the presence of chemical substance/absence: YER092W (gene YER092W): 1.2
- The level of expressed mRNA in the presence of chemical substance/absence: YER182W (gene YER182W): 1.9
- The level of expressed mRNA in the presence of chemical substance/absence: YFL042C (gene YFL042C): 1.2
- level of expressed mRNA in the presence of chemical substance/in its absence (gene YFR015C): 3.1
- The level of expressed mRNA in the presence of chemical substance/absence: YFR026C (gene YFR026C): 1.0
- The level of expressed mRNA in the presence of chemical substance/absence: YFR056C (gene YFR056C): 0.6
- level of expressed mRNA in the presence of chemical substance/in its absence (gene YGL001C): 1.1
- level of expressed mRNA in the presence of chemical substance/in its absence (gene YGL022W): 0.5
- level of expressed mRNA in the presence of chemical substance/in its absence (gene YGL039W): 0.9
- The level of expressed mRNA in the presence of chemical substance/absence: YGL041C (gene YGL041C): 1.2
- The level of expressed mRNA in the presence of chemical substance/absence: YGL045W (gene YGL045W): 1.1
- The level of expressed mRNA in the presence of chemical substance/absence: YGL057C (gene YGL057C): 1.5
- The level of expressed mRNA in the presence of chemical substance/absence: YGL088W (gene YGL088W): 1.4
- level of expressed mRNA in the presence of chemical substance/in its absence (gene YGL104C): 1.0
- level of expressed mRNA in the presence of chemical substance/in its absence (gene YGL134W): 1.1
- level of expressed mRNA in the presence of chemical substance/in its absence (gene YGL154C): 1.1
- The level of expressed mRNA in the presence of chemical substance/absence: YGL183C (gene YGL183C): 1.7
- level of expressed mRNA in the presence of chemical substance/in its absence (gene YGL209W): 1.6
- The level of expressed mRNA in the presence of chemical substance/absence: YGL223C (gene YGL223C): 0.9
- level of expressed mRNA in the presence of chemical substance/in its absence (gene YGL253W): 0.5
- The level of expressed mRNA in the presence of chemical substance/absence: YGR038W (gene YGR038W): 1.4
- level of expressed mRNA in the presence of chemical substance/in its absence (gene YGR060W): 0.8
- The level of expressed mRNA in the presence of chemical substance/absence: YGR139W (gene YGR139W): 0.9
- The level of expressed mRNA in the presence of chemical substance/absence: YGR156W (gene YGR156W): 1.6
- The level of expressed mRNA in the presence of chemical substance/absence: YGR198W (gene YGR198W): 0.8
- The level of expressed mRNA in the presence of chemical substance/absence: YGR210C (gene YGR210C): 0.8
- The level of expressed mRNA in the presence of chemical substance/absence: YGR211W (gene YGR211W): 0.4
- The level of expressed mRNA in the presence of chemical substance/absence: YGR237C (gene YGR237C): 0.6
- The level of expressed mRNA in the presence of chemical substance/absence: YGR243W (gene YGR243W): 1.9
- The level of expressed mRNA in the presence of chemical substance/absence: YGR250C (gene YGR250C): 1.3
- The level of expressed mRNA in the presence of chemical substance/absence: YGR266W (gene YGR266W): 0.8
- The level of expressed mRNA in the presence of chemical substance/absence: YGR277C (gene YGR277C): 1.5
- level of expressed mRNA in the presence of chemical substance/in its absence (gene YGR282C): 1.0
